Results: patent US20240245627A1, “ALKENE QUINONE COMPOUNDS AND METHODS OF USE” (University of Pittsburgh - Of the Commonwealth System of …, priority 2021, published 2024)

Assays:
Recombinant CYB5R3 = molecular target: T1, Recombinant CYB5R3 (Homo sapiens, UniProt P00387); assay: Reduction of oxidized myoglobin by recombinant CYB5R3 (NADH-initiated, absorbance); format: biochemical
T1 sequence (P00387 1-301): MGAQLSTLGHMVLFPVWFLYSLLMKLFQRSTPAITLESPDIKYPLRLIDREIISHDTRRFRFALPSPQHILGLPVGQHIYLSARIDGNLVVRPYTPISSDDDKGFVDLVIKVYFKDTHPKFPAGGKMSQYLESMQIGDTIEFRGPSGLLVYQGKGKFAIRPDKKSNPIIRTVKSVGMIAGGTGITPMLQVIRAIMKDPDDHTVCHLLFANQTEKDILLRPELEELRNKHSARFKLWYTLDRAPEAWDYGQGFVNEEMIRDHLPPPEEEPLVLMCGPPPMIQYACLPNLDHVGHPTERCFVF
Description: FIGS. 2a-2c. Reduction of oxidized myoglobin by CYB5R3 is not affected by (FIG. 2a) oleic acid or (FIG. 2b) Q-OA (CoQ-linked oleic acid). Q-NA enhanced (FIG. 2c) CYB5R3 reduction of myoglobin. Error bars are S.E.M. and n=3.
Recombinant CYB5R3 was incubated with nitro-oleic acid, CoQ-linked oleic acid or Q-NA along with oxidized myoglobin. NADH stimulation initiated the reaction and absorbance changes were monitored which is indicative of myoglobin reduction. Q-NA increased myoglobin heme reduction whereas the other compounds had no effect (FIG. 2). Q-NA alone had no effect on myoglobin reduction.

[1] = system: RPS/RPL gene expression in human aortic endothelial cells; assay: RPS/RPL gene transcription in human aortic endothelial cells (RNA sequencing); format: cell-based; conditions: 5 μM, 6 hours
Description: FIG. 9. NO2—OA and Q-NA stimulate divergent effects of RSP/RPL gene transcription in aortic endothelial cells.
Human aortic endothelial cells were stimulated with vehicle (dimethylsulfoxide, (DMSO)), 5 μM of NO2—OA, or 5 μM Q-NA. Following 6 hours of stimulation, cells were lysed and RNA sequencing was performed.

| Compound | myoglobin heme reduction by CYB5R3 (Recombinant CYB5R3) | RPS/RPL gene expression compared to Q-NA treatment [1] |
| --- | --- | --- |
| 9-, 10-nitro octadece-9-noic acid [NO2—OA] | no effect | opposing effects |
| CCCCCCCC/C=C\CCCCCCCC(=O)O [oleic acid, octadece-9-noic acid] | not affected |  |
